Measurements: patent US7312239B2, “Medicament for prevention and/or therapy of arterial wall disorder” (Mitsubishi Pharma Corporation, priority 2002, dated 2007)

What was measured:
[1] = system: abdominal aorta of rabbits injured by use of a balloon; assay: Balloon injury of abdominal aorta in cholesterol-fed rabbits, ratio of new intima to new media (I/M); type: in vivo, Japanese white rabbits; conditions: rabbits on 1% cholesterol food, 10 mg/kg intravenous injection twice per day from the day before injury, 10th week, p=0.018 vs control 0.475±0.136
Experimental: (§1) Japanese white rabbits were divided into two groups, an edaravone group (n=6) and a control group (n=6), and they were fed with 1% cholesterol food for 10 weeks. On the 8th week, the rabbits of both groups were injured such that their abdominal aorta was damaged by use of a balloon. For the edaravone group, edaravone was administered every day (10 mg/kg, intravenous injection twice per day) from the day before the balloon injury. For the control group, a physiological salt solution was administered. On the 10th week, the rabbits were sacrificed, and their abdominal aorta was excised. The ratio of a new intima to a new media (the ratio of the intimal area of a blood vessel section to the medial area thereof; I/M) was measured as follows. First, total 5 portions were cut out of the abdominal aorta into round slices each having a width of 5 mm, and HE-stained samples were prepared therefrom. A new intimal area and a new medial area were analyzed with computer software, and the mean value of the 5 portions was obtained, followed by calculation of I/M.

[2] = system: right common carotid artery injured by abrasion with a 2F balloon; assay: Balloon injury of right common carotid artery in ovary-eliminated rats, I/M; type: in vivo; conditions: ovary elimination (OVX) female SD rats, 30 mg/kg/day oral for 3 days after operation, 14th day; p<0.01 vs OVX+V 1.36±0.12
Experimental: (§2) 11′-week-old female SD rats were divided into two groups, an ovary elimination group (OVX) and an ovary non-elimination group (INT). To the OVX group, edaravone (Ed) (30 mg/kg/day) (n=8) or vehicle (V) (n=7) was orally administered, and to the INT group (n=4), vehicle (V) was administered. The vascular endothelium of the right common carotid artery was injured by abrasion with a 2F balloon. The above drugs were administered for 3 days immediately after the above operation. On the 14th day, the blood vessel was excised, and the ratio of a new intima to a new media (I/M) was calculated.

[3] = Total cholesterol, triglyceride and lipid peroxide in serum of balloon-injured cholesterol-fed rabbits; type: in vivo, Japanese white rabbits; conditions: 10 mg/kg i.v. twice per day, before cholesterol food, at balloon injury, at sacrifice, vs control group
Experimental: as §1
Moreover, total cholesterol (TC), triglyceride (TG) and lipid peroxide (LPO) in serum were measured, before the rabbits were fed with cholesterol food, when they were injured by use of a balloon, and when they were sacrificed.

[4] = system: right common carotid artery injured by abrasion with a 2F balloon; assay: Balloon injury of carotid artery in OLETF rats with type II diabetes, I/M; type: in vivo; conditions: male OLETF rats with type II diabetes, administered from 3 days before to 14th day after operation; p<0.01 vs vehicle 1.12±0.15
Experimental: as §2, with “calculated. 30-week-old male OLETF rats with type II diabetes were divided into two groups, an edaravone (Ed) administration group (n=4) and a vehicle (V) administration group (n=4). The above-described blood vessel injury was carried out on them. The above drugs were continuously administered from 3 days before the above operation to the 14th day after the above operation. Thereafter, the ratio of a new intima to a new media (I/M) was calculated.” for “calculated.”

CC1=NN(c2ccccc2)C(=O)C1 [edaravone, 3-methyl-1-phenyl-2-pyrazolin-5-one]
ratio of a new intima to a new media (I/M) [1]: 0.344±0.055 | ratio of a new intima to a new media (I/M) [2]: 0.82±0.09 | lipid peroxide (LPO) in serum [3]: not significantly different | total cholesterol (TC) in serum [3]: not significantly different | triglyceride (TG) in serum [3]: not significantly different | ratio of a new intima to a new media (I/M) [4]: 0.55±0.02
